What was measured:
[1] = tested on: SMN2 minigene mRNA (SMN2-A minigene construct); assay: SMN2 minigene mRNA splicing RT-qPCR assay in cultured cells; assay type: cell-based, human; conditions: Homo sapiens, HEK293-H; HEK293H cells stably transfected with SMN2-A minigene, 24 hours, 7-point concentration data; concentration giving 1.5-fold SMN2 full length mRNA relative to vehicle-treated cells; read-out: EC1.5x for production of full length SMN2 mRNA
How it was run: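 Full-length SMN2 minigene mRNA, measured by exon 7/luciferase-specific RT-qPCR that excludes endogenous SMN1/SMN2, was normalized to GAPDH and expressed relative to vehicle-treated cells via modified ΔΔCt. Stably transfected HEK293H cells received compound (7-point, 3.16-fold series, duplicates) for 24 h at 37 °C.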

Smn protein = Smn protein assay (HTRF) in cultured cells (SMA patient fibroblasts GM03813); assay type: cell-based, human; conditions: 48 hours; for EC1.5x for Smn protein expression: SMA patient fibroblast cells (GM03813), HTRF, 7-point concentration data, concentration producing 1.5 times Smn protein vs DMSO vehicle control; for maximum fold (Fold) increase of Smn protein: SMA patient fibroblast cells, 7-point concentration curve, relative to vehicle control
How it was run: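 Smn level is expressed as fold over vehicle, from blank-corrected ΔF of the 665/620 nm HTRF ratio. Readout used anti-SMN d2 and kryptate antibodies on RIPA lysates. GM03813 SMA fibroblasts had 48 h exposure at 37° C to seven 3.16-fold compound dilutions, run in triplicate.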

melting point [°C] | SMILES | EC (1.5-fold) [1] [µM] | EC1.5x for Smn protein expression (Smn protein) | maximum fold (Fold) increase of Smn protein (Smn protein)
280 to 283 | Cc1cc(F)c2nc(-c3cc4ccc(N5C[C@@H](C)N[C@@H](C)C5)nc4oc3=O)cn2c1 [Cpd 106, 7-[(3R,5S)-3,5-dimethylpiperazin-1-yl]-3-(8-fluoro-6-methylimidazo[1,2-a]pyridin-2-yl)-2H-pyrano[2,3-b]pyridin-2-one] | ≤ 0.1 | *** (an EC1.5× between >0.3 μM and ≦1 μM is indicated by three stars (***)) | *** (a fold increase between >1.35 and ≦1.5 is indicated by three stars (***))
276 to 279 | Cc1cc(F)c2nc(-c3cc4ccc(N5CCCNCC5)nc4oc3=O)cn2c1.Cl [Cpd 107, 7-(1,4-diazepan-1-yl)-3-(8-fluoro-6-methylimidazo[1,2-a]pyridin-2-yl)-2H-pyrano[2,3-b]pyridin-2-one hydrochloride] | ≤ 0.1 | *** (an EC1.5× between >0.3 μM and ≦1 μM is indicated by three stars (***)) | **** (a fold increase between >1.5 and ≦1.65 is indicated by four stars (****))
258 to 262 | CN1CCN(c2ccc3cc(-c4cn5cccc(F)c5n4)c(=O)oc3n2)CC1 [Cpd 110, 3-(8-fluoroimidazo[1,2-a]pyridin-2-yl)-7-(4-methylpiperazin-1-yl)-2H-pyrano[2,3-b]pyridin-2-one] | ≤ 0.1 | **** (an EC1.5×≦0.3 μM is indicated by four stars (****)) | **** (a fold increase between >1.5 and ≦1.65 is indicated by four stars (****))
269 to 273 | Cc1cc(F)c2nc(-c3cc4ccc(N5CCCN(C)CC5)nc4oc3=O)cn2c1 [Cpd 113, 3-(8-fluoro-6-methylimidazo[1,2-a]pyridin-2-yl)-7-(4-methyl-1,4-diazepan-1-yl)-2H-pyrano[2,3-b]pyridin-2-one] | ≤ 0.1 | *** (an EC1.5× between >0.3 μM and ≦1 μM is indicated by three stars (***)) | **** (a fold increase between >1.5 and ≦1.65 is indicated by four stars (****))
224 to 226 | CN1CCCN(c2ccc3cc(-c4cn5ccsc5n4)c(=O)oc3n2)CC1 [Cpd 114, 3-(imidazo[2,1-b][1,3]thiazol-6-yl)-7-(4-methyl-1,4-diazepan-1-yl)-2H-pyrano[2,3-b]pyridin-2-one] | ≤ 0.1 | *** (an EC1.5× between >0.3 μM and ≦1 μM is indicated by three stars (***)) | **** (a fold increase between >1.5 and ≦1.65 is indicated by four stars (****))
241 to 243 | Cc1ccn2cc(-c3cc4ccc(N5CCCN(C)CC5)nc4oc3=O)nc2c1 [Cpd 115, 7-(4-methyl-1,4-diazepan-1-yl)-3-(7-methylimidazo[1,2-a]pyridin-2-yl)-2H-pyrano[2,3-b]pyridin-2-one] | ≤ 0.1 |  | *** (a fold increase between >1.35 and ≦1.5 is indicated by three stars (***))
233 to 236 | Cc1ccc2nc(-c3cc4ccc(N5CCCN(C)CC5)nc4oc3=O)cn2c1 [Cpd 116, 7-(4-methyl-1,4-diazepan-1-yl)-3-(6-methylimidazo[1,2-a]pyridin-2-yl)-2H-pyrano[2,3-b]pyridin-2-one] | ≤ 0.1 | *** (an EC1.5× between >0.3 μM and ≦1 μM is indicated by three stars (***)) | *** (a fold increase between >1.35 and ≦1.5 is indicated by three stars (***))
195 to 198 | Cc1cc(F)c2nc(-c3cc4ccc(N5C[C@H](C)NC[C@H]5C)nc4oc3=O)cn2c1 [Cpd 122, 7-[(2R,5S)-2,5-dimethylpiperazin-1-yl]-3-(8-fluoro-6-methylimidazo[1,2-a]pyridin-2-yl)-2H-pyrano[2,3-b]pyridin-2-one] | ≤ 0.1 | **** (an EC1.5×≦0.3 μM is indicated by four stars (****)) | **** (a fold increase between >1.5 and ≦1.65 is indicated by four stars (****))

Second part, the molecule before the results:

SMILES | melting point [°C] | EC (1.5-fold) [1] [µM] | EC1.5x for Smn protein expression (Smn protein) | maximum fold (Fold) increase of Smn protein (Smn protein)
O=c1oc2nc(N3CCNCC3)ccc2cc1-c1cn2cccc(F)c2n1 [Cpd 108, 3-(8-fluoroimidazo[1,2-a]pyridin-2-yl)-7-(piperazin-1-yl)-2H-pyrano[2,3-b]pyridin-2-one] | 231 to 235 | ≤ 0.1 | **** (an EC1.5×≦0.3 μM is indicated by four stars (****)) | **** (a fold increase between >1.5 and ≦1.65 is indicated by four stars (****))
O=c1oc2nc(N3CCNCC3)ccc2cc1-c1cn2cccc(Cl)c2n1 [Cpd 109, 3-(8-chloroimidazo[1,2-a]pyridin-2-yl)-7-(piperazin-1-yl)-2H-pyrano[2,3-b]pyridin-2-one] | 233 to 237 | ≤ 0.1 | **** (an EC1.5×≦0.3 μM is indicated by four stars (****)) | **** (a fold increase between >1.5 and ≦1.65 is indicated by four stars (****))
CN1CCN(c2ccc3cc(-c4cn5cccc(Cl)c5n4)c(=O)oc3n2)CC1 [Cpd 111, 3-(8-chloroimidazo[1,2-a]pyridin-2-yl)-7-(4-methylpiperazin-1-yl)-2H-pyrano[2,3-b]pyridin-2-one] | 256 to 259 | ≤ 0.1 | **** (an EC1.5×≦0.3 μM is indicated by four stars (****)) | *** (a fold increase between >1.35 and ≦1.5 is indicated by three stars (***))
CN1CCN(c2ccc3cc(-c4cn5cccnc5n4)c(=O)oc3n2)CC1 [Cpd 117, 3-(imidazo[1,2-a]pyrimidin-2-yl)-7-(4-methylpiperazin-1-yl)-2H-pyrano[2,3-b]pyridin-2-one] | 266 to 269 | 0.1 to 0.3 | *** (an EC1.5× between >0.3 μM and ≦1 μM is indicated by three stars (***)) | **** (a fold increase between >1.5 and ≦1.65 is indicated by four stars (****))
C[C@@H]1CN(c2ccc3cc(-c4cn5cccnc5n4)c(=O)oc3n2)C[C@H](C)N1C [Cpd 118, 3-(imidazo[1,2-a]pyrimidin-2-yl)-7-[(3R,5S)-3,4,5-trimethylpiperazin-1-yl]-2H-pyrano[2,3-b]pyridin-2-one] | 286 to 289 | 0.1 to 0.3 | ** (an EC1.5× between >1 and ≦3 μM is indicated by two stars (**)) | *** (a fold increase between >1.35 and ≦1.5 is indicated by three stars (***))
C[C@@H]1CN(c2ccc3cc(-c4cn5cccc(F)c5n4)c(=O)oc3n2)C[C@H](C)N1C [Cpd 119, 3-(8-fluoroimidazo[1,2-a]pyridin-2-yl)-7-[(3R,5 S)-3,4,5-trimethylpiperazin-1-yl]-2H-pyrano[2,3-b]pyridin-2-one] | 242 to 245 | ≤ 0.1 | **** (an EC1.5×≦0.3 μM is indicated by four stars (****)) | **** (a fold increase between >1.5 and ≦1.65 is indicated by four stars (****))
C[C@@H]1CN(c2ccc3cc(-c4cn5cccc(Cl)c5n4)c(=O)oc3n2)C[C@H](C)N1C [Cpd 120, 3-(8-chloroimidazo[1,2-a]pyridin-2-yl)-7-[(3R,5S)-3,4,5-trimethylpiperazin-1-yl]-2H-pyrano[2,3-b]pyridin-2-one] | 241 to 245 | ≤ 0.1 |  | *** (a fold increase between >1.35 and ≦1.5 is indicated by three stars (***))
C[C@@H]1CN(c2ccc3cc(-c4cn5ccccc5n4)c(=O)oc3n2)C[C@H](C)N1C [Cpd 121, 3-(imidazo[1,2-a]pyridin-2-yl)-7-[(3R,5S)-3,4,5-trimethylpiperazin-1-yl]-2H-pyrano[2,3-b]pyridin-2-one] | 242 to 246 | ≤ 0.1 | * (An EC1.5× for Smn protein expression between >3 μM and ≦10 μM is indicated by one star (*)) | *** (a fold increase between >1.35 and ≦1.5 is indicated by three stars (***))
Cc1cn2cc(-c3cc4ccc(N5C[C@H](C)N(C)C[C@H]5C)nc4oc3=O)nc2c(C)n1 [Cpd 123, 3-(6,8-dimethylimidazo[1,2-a]pyrazin-2-yl)-7-[(2R,5S)-2,4,5-trimethylpiperazin-1-yl]-2H-pyran[2,3-b]pyridin-2-one] | 234 to 236 | 0.1 to 0.3 | *** (an EC1.5× between >0.3 μM and ≦1 μM is indicated by three stars (***)) | **** (a fold increase between >1.5 and ≦1.65 is indicated by four stars (****))
Cc1ccc2nc(-c3cc4ccc(N5C[C@@H]6C[C@H]5CN6C)nc4oc3=O)cn2c1 [Cpd 125, 7-[(1S,4S)-5-methyl-2,5-diazabicyclo[2.2.1]hept-2-yl]-3-(6-methylimidazo[1,2-a]pyridin-2-yl)-2H-pyrano[2,3-b]pyridin-2-one] | 211 to 213 | 0.1 to 0.3 | **** (an EC1.5×≦0.3 μM is indicated by four stars (****)) | ***** (a fold increase >1.65 is indicated by five stars (*****))
